Structure (SMILES)	melting point
O=C(OCCOCc1ccccc1)c1cc(Oc2ccc(C(F)(F)F)cc2Cl)ccc1[N+](=O)[O-]	85 °C
COC(=O)c1cc(Br)cc(-c2ccc3c(c2)C(C)(C)CCC3(C)C)c1	88 °C
Cc1c(/C=C2\COc3ccccc3C2=O)ncn1C(c1ccccc1)(c1ccccc1)c1ccccc1	231 to 233 °C
CC1CC(=O)C(C(=O)c2ccc(S(C)(=O)=O)cc2[N+](=O)[O-])C(=O)C1(C)C (stereo not drawn)	166 to 167 °C
Cn1c(=O)sc2ccc(Cl)cc21	106 to 108 °C
Cc1ccc(C=CC(=O)c2ccccc2)o1	57 to 61 °C
CCN(C(=O)c1ccc(CCSn2cnc3ccccc32)cc1)C1CCCCC1	114 to 115 °C
O=C(O)C1CC2CCCCC2CN1C(S)c1nn[nH]n1 (stereo not drawn)	165 to 172 °C
O=c1n(Cc2ccc([N+](=O)[O-])cc2)c2ccccc2n1Cc1ccc(C(F)(F)F)cc1	134 to 137 °C
Cc1sc(-c2ccccc2)nc1COc1cc(COc2ncccc2C#N)on1	135 to 136 °C
CCCn1nc(-c2sc(C(=O)NC3CC3)nc2-c2ccccc2)ccc1=O	146 to 147 °C
OCC1OC(n2cnc3c(NC4Cc5ccccc5C4)ncnc32)C(O)C1O (stereo not drawn)	166 to 168 °C
CCCCCCCCC#CCCCCCCCCCCCC(=O)O	58 °C
O=c1cnn(CCCCCl)c(=O)[nH]1	93 °C
Cc1oc(-c2ccccc2)nc1CCOc1ccc(Cn2cc(CCC(=O)O)c(-c3ccccc3)n2)cc1	142 to 143 °C
CC(C)(C)n1nc(Nc2ccccc2)c(C#N)c1N	123 to 125 °C
CCOC(=O)CNC(=O)CCC(=O)OC	61 to 62 °C
O=C(O)c1ccc(C(=O)NCCc2ccccc2)cc1	237 to 238 °C
Cc1c(Nc2cc(-c3cccc(C4NCCc5c4sc4c5CC(C)(C)C4)c3CO)cn(C)c2=O)cnn1C (stereo not drawn)	164 to 165 °C
CS(=O)(=O)Oc1ccc(C=O)cc1	61 to 63 °C
CCCCCCCCCCC1CN(O)C(=O)N1C (stereo not drawn)	47 to 48 °C
CC(O)c1cc2c(s1)C(=O)c1ccsc1C2=O (stereo not drawn)	166 to 168 °C

Structure (SMILES)	melting point
OC(C#Cc1ccncc1)c1ccccc1 (stereo not drawn)	93 to 96 °C
N#Cc1ccc(C2(n3ccnc3)Cc3ccccc3C2)cc1	150 to 152 °C
Nc1ccnc(SCCCCN2C(=O)c3ccccc3C2=O)n1	164 to 167 °C
CC(=O)Nc1nc(CCc2ccc(NC(N)=S)cc2)c(Cc2ccc(S(C)(=O)=O)cc2)s1	102 to 103 °C
COc1ccc(S(=O)(=O)C2(CCCCC#Cc3ccc(Cl)cc3)SC(=O)NC2=O)cc1 (stereo not drawn)	145 to 148 °C
CN(C)Cc1ccc(CSCCNc2ncc(-c3ccccc3)c(=O)[nH]2)o1	116 to 118 °C
CNn1c(C)nn(C(=O)NC(C)(C)CCl)c1=O	93 °C
Oc1ccc(-c2nc(-c3ccccc3)[nH]c2-c2ccc(O)cc2)cc1	327 to 330 °C
OC(CN1CCNCC1)Cn1c2ccccc2c2cc(-c3ccccc3)ccc21 (stereo not drawn)	120 °C
O=C(SC[C@H](SC(=O)c1ccccc1)C(=O)N[C@@H](CO)C(=O)O)c1ccccc1	147 to 150 °C
COC(=O)C1(c2c(F)cccc2F)Nc2ccccc2N1Cc1c(F)cccc1F (stereo not drawn)	185 to 186 °C
O=C(NCC1COCCO1)C1CCCN(c2cccc3c2C(=O)N(Cc2ccncc2)C3=O)C1 (stereo not drawn)	186 to 187 °C
Nc1ccc2c(c1Br)C(=O)C1(CC1)O2	167 to 170 °C
CS(=O)(=O)Nc1cc2occ(-n3cccc3)c(=O)c2cc1Oc1ccccc1	238 to 240 °C
CCCCC(CC)COc1ccc(C=C2C(=O)C3CCN2CC3)cc1 (stereo not drawn)	37 °C
CC(C)(C)OC(=O)ON1C(C)(C)CC(OC(=O)c2ccccc2)CC1(C)C	109 to 111 °C
CC(=NNc1ccc(C(F)(F)F)cc1)C(=O)NCc1ccc(Cl)cc1	124 to 125 °C
CC(Cn1c(=S)[nH]c2ccccc2c1=O)N1CCC(C(=O)c2ccc(F)cc2)CC1 (stereo not drawn)	161 °C
COc1ccc(F)c2c1C[C@@H](NO)CO2	111 to 113 °C
Nc1ccc(-c2cc3c(N4CCc5ccccc54)ncnc3[nH]2)cc1	> 300 °C
Nc1ccc(Br)cc1CO	107 to 110 °C
CN1CCN(S(=O)(=O)Nc2ccc(-c3nc(-c4ccc(F)cc4)c(-c4ccncc4)[nH]3)cc2)CC1	74 to 76 °C

Structure (SMILES)	melting point
COC(=O)c1occc1NC(N)=O	208 °C
COC(=O)[C@H](Cc1ccccc1)NC(=O)[C@H](Cc1ccccc1)NC(=S)Cc1ccc(C)cc1	115 to 117 °C
O=c1oc(-c2ccccc2)nc2ccc(Br)cc12	199 to 201 °C
COC(=O)CCc1cc(C(C)(C)C)c2oc(-c3ccc(-c4nc5cc(CCC(=O)OC)cc(C(C)(C)C)c5o4)s3)nc2c1	144 to 145 °C
O=C(O)c1cc2n(c1)CCc1ccccc1C2=O	287 to 290 °C
O=C(O)c1cn(CCc2ccc(Cl)cc2)c2cc(C3CC3)nn2c1=O	220 to 225 °C
CCN1C(=O)C2CC(c3ccc(N)cc3)(C2)C1=O	159 to 162 °C
Cc1cccc(-c2c(=O)[nH]c3cc(Cl)c(Cl)cc3[n+]2[O-])c1	260 to 262 °C
CCC(C)(CC)c1ccc(=O)[nH]n1	97 to 99 °C
N#CC(C=N)CC(=O)c1ccc2ccccc2c1 (stereo not drawn)	154 to 157 °C
O=c1[nH]c(=O)c2cc(N3CCCCC3)ccc2[nH]1	> 280 °C
O=C(O)COc1cccc2c1OCc1sc(SCCC(c3ccccc3)c3ccccc3)nc1-2	112 to 114 °C
O=C1C=C(c2ccc(Cl)c(Cl)c2)C(=O)N1Nc1ccccc1	208 to 210 °C
CSc1nncc(-c2cccc(Cl)c2)n1	79 to 81 °C
O=C1c2ccccc2S(=O)(=O)N1CCCCBr	72 °C
Cc1oc(C=Cc2ccccc2)nc1CCl	108 to 109 °C
O=c1[nH]c2cc(C(F)(F)F)cc(Br)c2[nH]c1=NO	221 to 223 °C
CC1(C)COC(c2c(F)cccc2C2(C)CCCC2)=N1	116 to 117 °C
COC(=O)COc1cccc2c1CCC(n1nc(-c3c(-c4ccccc4)nn4ccccc34)ccc1=O)C2=O (stereo not drawn)	175 to 176 °C
CC(C)(C)NCC(=O)NCCn1ccc2ncnc(Nc3ccc(Oc4cccc5sncc45)c(Cl)c3)c21	178 to 180 °C

The remaining lines, values ahead:

melting point	Structure (SMILES)
118 to 120 °C	CCNC(=O)Nc1cccc(Oc2nnc([C@@H](C)NS(=O)(=O)c3ccc(Cl)c(Cl)c3)n2CC)c1
72 to 73 °C	CCOC(=O)c1cc(CC)sc1Nc1c([N+](=O)[O-])cccc1C(F)(F)F
174 °C	CCOC(=O)c1c(Nc2ccc(F)cc2[N+](=O)[O-])nn(C)c1C
221 to 225 °C	CNC(=O)C(Cc1ccc(OC)cc1)NC(=O)CC(S)C(CC(C)C)C(N)=O (stereo not drawn)
221 to 222 °C	COc1ccn2nc(-c3ccc(F)cc3)c(-c3ccc(=O)n(C)n3)c2c1
160 to 162 °C	COc1ccc(-c2nc(C(N)=O)sc2-c2ccc(OC)cc2)cc1
225 to 226 °C	COC(=O)c1ccc(-c2cc(-c3ccc(Cl)cc3)on2)cc1
184 to 185 °C	COC(=O)c1cc(SC#N)c(N)cc1OC
274 to 276 °C	COc1cc(Cl)ccc1C(=O)NC1COCCn2c1nc(-c1ccncn1)cc2=O (racemic)
110 to 112 °C	CNC(=O)CCCCCN(C)S(=O)(=O)c1ccc(Cl)c(COc2cccc3ccc(C)nc23)c1Cl
200 to 201 °C	CCCOc1cc(C)c(C=CC(C)=CC=CC(C)=CC(=O)OCC)c(C)c1C
152 to 154 °C	CCc1cc(C(=O)O)c(O)cc1C
75 to 76.5 °C	CCCCCCOc1ccc(C(=O)NCCC(C)(C)C)cn1
184 to 186 °C	CCc1cccc2sc(COc3ccc(F)c(C(N)=O)c3F)nc12
256 to 259 °C	COc1ccc(C(=O)Nc2ccc(C(=O)O)c3ccccc23)cc1OC
77 to 78 °C	COC(=O)C(CCC(C)(C)Cl)N(C)S(=O)(=O)NC(=O)OCc1ccccc1 (stereo not drawn)
223 to 224 °C	CCc1c(-c2ccc(OCc3ccccc3)cc2)c2cc(C(=O)O)c3cccc1n32
125 to 130 °C	CCOC(=O)c1ccc2c(c1)c(C)c(CBr)n2C(C)=O
59 °C	CCCCCNC(=O)N(C)c1cccc(-c2ccc(C=C(OCC)C(=O)O)cc2OCCCC)c1
108 °C	CCOC(=O)Nc1ccc2oc(CCC(F)(F)F)cc2c1

melting point	Structure (SMILES)
193 to 194 °C	COc1ccc(-c2cc3ccc(OC)cc3s2)cc1
101 to 102 °C	COc1ccc(-c2oncc2CCC(=O)O)cc1
123 to 125 °C	CNC(=O)CC1CN=C(c2cc3cc(Oc4ccc(S(C)(=O)=O)cn4)cc(OC(COC)COC)c3[nH]2)S1 (stereo not drawn)
89 to 90 °C	CCn1ncc2c(Cl)c(C=O)cnc21
109 to 111 °C	CCC(C(=O)OCC[Si](C)(C)C)c1ccccc1CCC(=O)c1cccc(C=Cc2ccc3ccc(Cl)cc3n2)c1 (stereo not drawn)
126 to 128 °C	CCOC(=O)C(C)c1cnc(Cl)c2cc(OC)ccc12 (stereo not drawn)
147 to 149 °C	COC(=O)c1cc2c3ccccc3n(-c3ccccc3)c2s1
81 to 83 °C	CC#CCOc1cc(C=O)ccc1OC
65 to 66 °C	COc1ccc2cc([C@H](C)C(=O)OC[C@](C)(O)CO)ccc2c1
120 °C	Cc1nc2c(O)cccc2c(Cl)c1C
148 to 149 °C	NS(=O)(=O)c1cc2ccc(OCC3CO3)cc2s1 (stereo not drawn)
180 to 185 °C	CC(=O)Nc1nsnc1-c1c(Cl)cccc1Cl
121 to 123 °C	Cc1ccc(C(=O)c2ccc(Cc3c(Cl)cc([N+](=O)[O-])cc3Cl)cc2)cn1
132 to 134 °C	COc1cc([N+](=O)[O-])ccc1-c1cnn(C)c1
118 to 119 °C	CC(=O)Nc1cccc(N(C)C)n1
101 to 103 °C	COC=C(C(=O)OC)c1cccc([N+](=O)[O-])c1
121 to 124 °C	COc1ccc(CSc2nnc(-c3ccc4c(c3)CCO4)o2)cc1
186 to 187 °C	COc1ccc(-c2c(CO)c(CO)c3n2-c2ccc(OC)cc2C3)cc1
333 °C	CCn1c(N)c(C(=O)NC)c(=O)c2ccc(-c3ccc(NS(=O)(=O)c4cccc(Cl)c4Cl)c(F)c3)nc21

— a melting point compilation (Tetko et al.; mined from patent text by program, amines drawn as free bases though some values may be those of a salt)
